Test results taken from patent US8124361B2, “Methods of screening for sweet taste modulators” (Givaudan SA, priority 2006, dated 2012).

System: sweet sensitive panelists
Assay: Ranking test of sweetness isointensity (R-index), sensory panel
Assay type: in vivo, human
Details: for sample sweetness (0.5% sucrose) / sample sweetness (p-ethoxybenzaldehyde, 75 ppm): nose clips
Protocol: (§1) The sensory evaluation was conducted using a ranking method. Samples at ambient temperature were randomly presented in 15 ml blind aliquots (unidentifiable by panelists). Panels consisted of 10 sweet sensitive subjects and samples were presented in 3 replications over 1 session. After tasting each sample, the mouth was rinsed thoroughly with water at ambient temperature prior to tasting the next sample. […] They were asked to rank the samples from low to high with respect to perceived sweet taste.
as §1, with “taste. […] From ranking-style sensory tests, a matrix of responses (see table X below) is constructed such that each cell contains the number of times a given sample was ranked at a particular location.” for “taste.”
Essentially, the R-index is a measure of difference between two samples. The R-index has a chance level of detection of 50%. […] The critical value is the statistically relevant value that the derived R-index must deviate from (i.e greater or less than) in order to be considered significant.

CCOc1ccc(C=O)cc1 [p-ethoxybenzaldehyde]
less sweet than: sweetness A versus B (600 ppm (A) vs 700 ppm (B) p-ethoxybenzaldehyde in water) | sweetness A versus B (700 ppm (A) vs 800 ppm (B) p-ethoxybenzaldehyde in water) | sweetness A versus B (800 ppm (A) vs 900 ppm (B) p-ethoxybenzaldehyde in water) | sweetness A versus B (900 ppm (A) vs 1000 ppm (B) p-ethoxybenzaldehyde in water)
less sweet: sample sweetness (0.5% sucrose) (0.5% sucrose sample ranked against 150 ppm p-ethoxybenzaldehyde in water) | sample sweetness (p-ethoxybenzaldehyde, 75 ppm) (75 ppm in water vs 0.5% sucrose) | sample sweetness (p-ethoxybenzaldehyde, 75 ppm) (75 ppm in water vs 1% sucrose) | p-ethoxybenzaldehyde sample sweetness (75 ppm p-ethoxybenzaldehyde in 7% sucrose vs 9% sucrose) | p-ethoxybenzaldehyde sample sweetness (75 ppm p-ethoxybenzaldehyde in 7% sucrose vs 10% sucrose) | p-ethoxybenzaldehyde sample sweetness (75 ppm p-ethoxybenzaldehyde in 7% sucrose vs 11% sucrose) | sample sweetness (p-ethoxybenzaldehyde, 100 ppm) (100 ppm in water vs 200 ppm cyclamate) | sample sweetness (p-ethoxybenzaldehyde, 100 ppm) (100 ppm in water vs 250 ppm cyclamate) | p-ethoxybenzaldehyde sample sweetness (100 ppm p-ethoxybenzaldehyde in 1700 ppm cyclamate vs 2300 ppm cyclamate) | p-ethoxybenzaldehyde sample sweetness (100 ppm p-ethoxybenzaldehyde in 1700 ppm cyclamate vs 2500 ppm cyclamate)
2100 ppm cyclamate: cyclamate isointensity (1700 ppm cyclamate+100 ppm p-ethoxybenzaldehyde)
400 ppm cyclamate: cyclamate equivalent in sweetness added (100 ppm p-ethoxybenzaldehyde added to 1700 ppm cyclamate)
sweeter: p-ethoxybenzaldehyde sample sweetness (75 ppm p-ethoxybenzaldehyde in 7% sucrose vs 7% sucrose) | p-ethoxybenzaldehyde sample sweetness (100 ppm p-ethoxybenzaldehyde in 1700 ppm cyclamate vs 1700 ppm cyclamate) | p-ethoxybenzaldehyde sample sweetness (100 ppm p-ethoxybenzaldehyde in 1700 ppm cyclamate vs 1900 ppm cyclamate)
isosweet: sample sweetness (0.5% sucrose) (0.5% sucrose sample ranked against 100 ppm p-ethoxybenzaldehyde in water) | p-ethoxybenzaldehyde sample sweetness (75 ppm p-ethoxybenzaldehyde in 7% sucrose vs 8% sucrose) | sample sweetness (p-ethoxybenzaldehyde, 100 ppm) (100 ppm in water vs 150 ppm cyclamate) | p-ethoxybenzaldehyde sample sweetness (100 ppm p-ethoxybenzaldehyde in 1700 ppm cyclamate vs 2100 ppm cyclamate)
8 % sucrose: sweetness isointensity to sucrose (7% sucrose and 75 ppm p-ethoxybenzaldehyde)
0.25 % sucrose: sweetness equivalent to sucrose (isointensity) (75 ppm p-ethoxybenzaldehyde in water, by interpolation, below the detection threshold for sweet)
